Converted amounts (≈) assume the structure as drawn.
Tests used:
[1] = tested on: A. baumannii ATCC 17978 and resistant mutants; test: microbe, parasite or virus in culture; assay type: cell-based, Acinetobacter baumannii; conditions: Acinetobacter baumannii
Description: Antimicrobial Susceptibility Assay. The in vitro antimicrobial activity of all compounds/antibiotics against a panel of bacteria was evaluated by microbroth dilution method in accordance with the Clinical and Laboratory Standards Institute (CLSI) guidelines (using ATCC strains as quality control strains) (54). Overnight grown bacterial cultures were diluted in saline to achieve a 0.5 McFarland turbidity, followed by 1:50 dilution in Mueller-Hinton broth (MHB) for inoculation to a final concentration of approximately 5×10^5 CFU/mL. […] The lowest concentration that prevented the visible growth of bacteria was defined as the MIC for each antimicrobial agent. The broth with or without bacterial cells was used as positive or negative control, respectively.
Development of Resistance Study. […] Tobramycin and colistin were included as controls. At 24-hour intervals, the cultures were assessed for growth. […] This serial passaging was repeated for 8 days.

[2] = tested on: MDR/XDR P. aeruginosa, Acinetobacter baumannii, Escherichia coli, Klebsiella pneumoniae, and Enterobacter cloacae; assay type: cell-based; conditions: Gram-negative bacteria
Description: Next, we investigated whether tobramycin by itself would potentiate novobiocin against Gram-negative bacteria.
Checkerboard Assay. Combination studies with different antibiotics were performed in 96-well plates as previously described (19). Briefly, the antibiotic of interest was serially diluted in MHB along the abscissa while the adjuvant (tobramycin homodimer) was serially diluted in MHB along the ordinate. This creates a 10×7 matrices wherein each well consists of a combination of different antibiotic and adjuvant concentrations. Overnight grown bacterial cultures were diluted in saline to achieve a 0.5 McFarland turbidity, followed by 1:50 dilution in Mueller-Hinton broth (MHB) for inoculation to a final concentration of approximately 5×10^5 CFU/mL. […] MIC was recorded as wells with the lowest concentration of drugs with no bacterial growth. The fractional inhibitory concentration (FIC) for each antibiotic was calculated by dividing the MIC of the antibiotic in the presence of adjuvant by the MIC of the antibiotic alone. Similarly, the FIC of adjuvant was calculated by dividing the MIC of the adjuvant in the presence of antibiotic by the MIC of the adjuvant alone. FIC index is the sum of both FICs. FIC indices of ≤0.5 were deemed synergistic; >0.5-4, no interaction; and >4, antagonistic.

P. aeruginosa = test: Checkerboard assay (antibiotic + adjuvant combination MIC); assay type: cell-based, Pseudomonas aeruginosa

Description for porcine erythrocytes: Hemolytic Assay. The hemolytic activities of the newly synthesized compounds were determined and quantified as the amount of hemoglobin released by lysing porcine erythrocytes. […] The final cell concentration used was 3×10^8 cells/mL. Compounds were serially diluted with PBS and added to wells in a 96-well plate at twice the desired concentrations. […] Intact erythrocytes were subsequently pelleted by centrifuging at 1000 g at 4° C. for 10 mins, and the supernatants were transferred to a new 96-well plate. […] Blood cells in PBS (0% hemolysis) and 0.1% Triton X-100 (100% hemolysis) were used as negative and positive controls, respectively. Percent hemolysis was calculated as [% hemolysis=(X−0%)/(100%−0%)], where X is the optical density values of the compounds at different concentrations (49).

CC(C)(O/N=C(\C(=O)N[C@@H]1C(=O)N2C(C(=O)[O-])=C(C[n+]3ccccc3)CS[C@H]12)c1csc(N)n1)C(=O)O [Ceftazidime, reference compound]
MIC ([1]; ATCC17978, 18 h, Mutant C (seven serial passages, sub-MICs novobiocin + 7.1 μM compound 1)): 16 µg/mL
MIC ([1]; ATCC17978, Mutant A (seven serial passages, sub-MICs novobiocin)): 32 µg/mL (≈ 58.5 µM)
MIC ([1]; ATCC17978, Mutant B (seven serial passages, sub-MICs colistin)): 1 µg/mL (≈ 1.83 µM)
MIC ([1]; ATCC17978, Wild-type A. baumannii ATCC 17978): 16 µg/mL (≈ 29.3 µM)
synergy with novobiocin [2]: did not show any synergy
MIC Alone (P. aeruginosa; P. aeruginosa PAO1, β-lactam antibiotic alone): 2 µg/mL
MIC of CAZ alone (P. aeruginosa; PA 259-96918): 512 µg/mL
MIC of CAZ alone (P. aeruginosa; PA 260-97103): 32 µg/mL
MIC of CAZ alone (P. aeruginosa; PA 262-101856): 16 µg/mL
MIC of CAZ alone (P. aeruginosa; PA 264-104354): 128 µg/mL
MIC of CAZ alone (P. aeruginosa; PA 86052): 64 µg/mL
MIC of CAZ alone (P. aeruginosa; PA 88949): 64 µg/mL
MIC of CAZ alone (P. aeruginosa; PA 91433): 4 µg/mL
MIC of CAZ alone (P. aeruginosa; PA 100036): 8 µg/mL
MIC of CAZ alone (P. aeruginosa; PA 101243): 64 µg/mL
MIC of CAZ alone (P. aeruginosa; PA 101885): 8 µg/mL
MIC of CAZ alone (P. aeruginosa; PA 107092): 128 µg/mL
MIC of CAZ alone (P. aeruginosa; PA 108590): 32 µg/mL
MIC of CAZ alone (P. aeruginosa; PA 109084): 64 µg/mL
MIC of CAZ alone (P. aeruginosa; PA 114228): 8 µg/mL
MIC of CAZ alone (P. aeruginosa; PAO1): 2 µg/mL
MIC of CAZ alone (P. aeruginosa; PAO200 (efflux-deficient)): 1 µg/mL
MIC of CAZ alone (P. aeruginosa; PAO750 (efflux-deficient)): 0.5 µg/mL

NC[C@H]1O[C@H](O[C@H]2[C@H](OCCCCCCn3cc(CCCCO[C@@H]4[C@@H](O[C@H]5O[C@H](CO)[C@@H](O)[C@H](N)[C@H]5O)[C@H](N)C[C@H](N)[C@H]4O[C@H]4O[C@H](CN)[C@@H](O)C[C@H]4N)nn3)[C@@H](O[C@H]3O[C@H](CO)[C@@H](O)[C@H](N)[C@H]3O)[C@H](N)C[C@@H]2N)[C@H](N)C[C@@H]1O.O=C(O)C(F)(F)F.O=C(O)C(F)(F)F.O=C(O)C(F)(F)F.O=C(O)C(F)(F)F.O=C(O)C(F)(F)F.O=C(O)C(F)(F)F.O=C(O)C(F)(F)F.O=C(O)C(F)(F)F.O=C(O)C(F)(F)F.O=C(O)C(F)(F)F [Compound 2, Tobramycin Homodimer 2]
hemolysis of porcine erythrocytes (porcine erythrocytes): non-hemolytic

— patent publication US20220249441A1, “Homodimeric Tobramycin Adjuvant Repurposes Novobiocin as an Effective Antibacterial Agent Against Gram-Negative Bacteria” (priority 2019, published 2022)
